Source: patent US20030199431A1, “Modified peptide nucleic acid (PNA) molecules” (priority 1999, published 2003)
In brackets after ≈: the same amount, converted by molar mass. Like-named read-outs stand apart in the source and are kept apart here.

How the values were obtained:
S. aureus strain 700698 [1] = system: S. aureus strain 700698; set-up: MIC: unit not given beside the values; settings: S. aureus strain ATCC 700698
[2] = system: Staphylococcus aureus NCTC 8325; set-up: MIC: unit not given beside the values; settings: S. aureus strain 8325
S. aureus strain 700698R [3] = settings: S. aureus strain ATCC 700698R; additional 24 hours at 35° C.
[4] = system: Enterococcus faecium ATCC 51550; settings: E. facium strain ATCC 51550
[5] = system: Enterococcus faecium ATCC 700221; settings: E. facium strain ATCC 700221
[6] = system: Enterococcus faecium strain 8803; settings: E. facium strain 8803
[7] = system: Escherichia coli K12 MG1655; type: cell-based; settings: cultures with 10^4-10^1 cells/ml; 37° C., 16 hours
Text: (§1) The bacterial growth assay is designed to identify modified PNA molecules that inhibit or completely abolish bacterial growth. Growth inhibition results from antisense binding of PNA to mRNA of the targeted gene. The compound tested is present during the entire assay.
(§2) The experimental bacterial strain used is Escherichia coli K12 MG1655 (E. coli Genentic Stock Center, Yale University, New Haven). The medium for growth is 10% sterile LB (Lurea Bertani) medium. E. coli test cells are pre-cultured in LB medium at 37° C. over night (over night culture). The screen is performed in 96-well microtiter plates at 37° C. with constant shaking. PNAs are dissolved in H2O as a 40×concentrated stock solution.
(§3) A fresh culture (test culture) is inoculated with an overnight culture and grown to mid-log-phase (OD600=0.1 corresponding to 10^7 cells/ml) at 37° C. The test culture is diluted stepwise in the range 10^5 to 10^1 with 10% LB medium. 195 μl of diluted culture and 5 μl of a 40×concentrated PNA stock solution are added to each test well. 96-well microtiter plates are incubated in a microplate scanning spectrophotometer at 37° C. under constant shaking. OD600 measurements are performed automatically every 3.19 minutes and recorded simultaneously.
The assay was performed as follows.

[8] = system: Escherichia coli K12 MG1655; type: cell-based; settings: cultures with 10^4-10^1 cells/ml; 37° C., 16 hours; remark: listed apart in the source
Text: as §1, §2, §3
The assay was performed as follows. […] PNA design no. 2

E. coli K12 = type: cell-based, Escherichia coli
S. aureus strain 700698 [9] = settings: S. aureus strain ATCC 700698; characteristics of the strain; cited from earlier work
[10] = system: Staphylococcus aureus NCTC 8325; settings: S. aureus strain 8325; characteristics of the strain; cited from earlier work
S. aureus strain 700698R [11] = settings: S. aureus strain ATCC 700698R; characteristics of the strain; cited from earlier work

Cc1cn(CC(=O)N(CCNC(=O)CN(CCNC(=O)CN(CCNC(=O)CN(CCNC(=O)CN(CCNC(=O)CN(CCNC(=O)CN(CCNC(=O)COCCOCCNC(=O)C2CCC(CN3C(=O)CC(SC[C@H](NC(=O)[C@H](CCCCN)NC(=O)[C@H](CCCCN)NC(=O)[C@@H](NC(=O)[C@@H](NC(=O)[C@H](Cc4ccccc4)NC(=O)[C@H](CCCCN)NC(=O)[C@@H](NC(=O)[C@H](CCCCN)NC(=O)[C@H](Cc4ccccc4)NC(=O)[C@H](CCCCN)NC(=O)[C@@H](N)CCCCN)C(C)C)C(C)C)C(C)C)C(=O)O)C3=O)CC2)C(=O)Cn2cnc3c(N)ncnc32)C(=O)Cn2ccc(N)nc2=O)C(=O)Cn2cc(C)c(=O)[nH]c2=O)C(=O)Cn2cc(C)c(=O)[nH]c2=O)C(=O)Cn2cc(C)c(=O)[nH]c2=O)C(=O)Cn2cnc3c(=O)[nH]c(N)nc32)CC(=O)NCCN(CC(=O)NCCN(CC(=O)NCCN(CC(=O)NCCN(CC(=O)NCCN(CC(N)=O)C(=O)Cn2ccc(N)nc2=O)C(=O)Cn2ccc(N)nc2=O)C(=O)Cn2ccc(N)nc2=O)C(=O)Cn2cnc3c(=O)[nH]c(N)nc32)C(=O)Cn2ccc(N)nc2=O)c(=O)[nH]c1=O (some centres unmarked) [Example 24, H2N-KKFKVKFVVKKC-smcc-Ado-ACTTTGTCGCCC-NH2]
MIC (S. aureus strain 700698 [1]): 800/1600 | MBC (S. aureus strain 700698 [1]; additional 24 hours at 35° C.): 1600 nM (≈ 8.07 µg/mL) | MIC [2]: 800/1600 | MBC ([2]; additional 24 hours at 35° C.): 1600 nM (≈ 8.07 µg/mL) | MBC (S. aureus strain 700698R [3]): ≧1600 nM

CC[C@H](C)[C@H](NC(=O)[C@H](CCCCN)NC(=O)[C@H](CCCCN)NC(=O)[C@H](CC(C)C)NC(=O)[C@@H](NC(=O)[C@@H](NC(=O)[C@H](C)NC(=O)[C@@H](NC(=O)[C@H](CCCCN)NC(=O)[C@H](CCCCN)NC(=O)[C@@H](NC(=O)[C@H](CC(C)C)NC(=O)[C@@H](NC(=O)[C@@H](NC(=O)CNC(=O)[C@H](CC(C)C)NC(=O)[C@@H]1CCCN1C(=O)[C@H](C)NC(=O)[C@H](CC(C)C)NC(=O)[C@@H](NC(=O)[C@@H](N)CO)[C@@H](C)CC)[C@@H](C)O)[C@@H](C)O)C(C)C)C(C)C)[C@@H](C)O)[C@@H](C)O)C(=O)N[C@@H](Cc1ccccc1)C(=O)N[C@@H](CO)C(=O)N[C@@H](CCCCN)C(=O)N[C@@H](Cc1c[nH]c2ccccc12)C(=O)N[C@@H](CCCCN)C(=O)N[C@@H](CSC1CC(=O)N(CC2CCC(C(=O)NCCOCCOCC(=O)NCCN(CC(=O)NCCN(CC(=O)NCCN(CC(=O)NCCN(CC(=O)NCCN(CC(=O)NCCN(CC(=O)NCCN(CC(=O)NCCN(CC(=O)NCCN(CC(=O)NCCN(CC(=O)NCCN(CC(=O)NCCN(CC(N)=O)C(=O)Cn3cnc4c(N)ncnc43)C(=O)Cn3cc(C)c(=O)[nH]c3=O)C(=O)Cn3cc(C)c(=O)[nH]c3=O)C(=O)Cn3cc(C)c(=O)[nH]c3=O)C(=O)Cn3cnc4c(N)ncnc43)C(=O)Cn3ccc(N)nc3=O)C(=O)Cn3cnc4c(N)ncnc43)C(=O)Cn3cnc4c(N)ncnc43)C(=O)Cn3cc(C)c(=O)[nH]c3=O)C(=O)Cn3ccc(N)nc3=O)C(=O)Cn3cc(C)c(=O)[nH]c3=O)C(=O)Cn3cc(C)c(=O)[nH]c3=O)CC2)C1=O)C(=O)O (some centres unmarked) [Example 22]
MIC [4]: <400 nM | MBC ([4]; additional 24 hours at 35° C.): <400 nM | MIC [5]: <400 nM | MBC ([5]; additional 24 hours at 35° C.): <400 nM | MIC [6]: <400 nM | MBC ([6]; additional 24 hours at 35° C.): <400 nM

H-KFFKFFKFFK-ado-TTTCATCCGCTG-Lys-NH2 [PNA 14]
PNA concentration giving total inhibition of growth [7]: at least 1.4 μM

H-KFFKFFKFFK-ado-CACTGGAAATTT-Lys-NH2 [PNA 26]
PNA concentration giving total inhibition of growth [8]: at least 2.5 μM

H-KFFKFFKFF-ado-JTJTJJT-ado-ado-ado-TCCCTCTC-Lys-NH2 [Example 5]
Bacterial growth inhibition (E. coli K12): − (key: +: Total inhibition of bacterial growth.; (+): Significantly extended lagphase, (more than five times); −: Lagphase extended less than five times;)

CN[C@H](CC(C)C)C(=O)N[C@H]1C(=O)N[C@@H](CC(N)=O)C(=O)N[C@H]2C(=O)N[C@H]3C(=O)N[C@H](C(=O)N[C@H](C(=O)O)c4cc(O)cc(O)c4-c4cc3ccc4O)[C@H](O)c3ccc(c(Cl)c3)Oc3cc2cc(c3O[C@@H]2O[C@H](CO)[C@@H](O)[C@H](O)[C@H]2O[C@H]2C[C@](C)(N)[C@H](O)[C@H](C)O2)Oc2ccc(cc2Cl)[C@H]1O [Vancomycin]
Vancomycin MIC (S. aureus strain 700698 [9]): 2 µg/mL | Vancomycin MIC [10]: <0.5 µg/mL | Vancomycin MIC (S. aureus strain 700698R [11]): 11 µg/mL
